Biological target: IRAK4 (Homo sapiens (Human), UniProt Q9NWZ3)
Assay: IRAK4 Inhibition Assay
Format: biochemical
Details: ATP 500 μM; IRAK4 0.6 nM
Protocol: The assays were performed in U-bottom 384-well plates. The final assay volume was 30 μL prepared from 15 μL additions of enzyme and substrates (fluoresceinated peptide and ATP) and test compounds in assay buffer (20 mM HEPES pH 7.2, 10 mM MgCl2, 0.015% Brij 35 and 4 mM DTT). The reaction was initiated by the combination of IRAK4 with substrates and test compounds. The reaction mixture was incubated at room temperature for 60 min. and terminated by adding 45 μL of 35 mM EDTA to each sample. The reaction mixture was analyzed on the Caliper LABCHIP® 3000 (Caliper, Hopkinton, Mass.) by electrophoretic separation of the fluorescent substrate and phosphorylated product. Inhibition data were calculated by comparison to no enzyme control reactions for 100% inhibition and vehicle-only reactions for 0% inhibition. The final concentrations of reagents in the assays are ATP, 500 μM; FL-IPTSPITTTYFFFKKK peptide 1.5 μM; IRAK4, 0.6 nM; and DMSO, 1.6%.

IRAK4, sequence (Q9NWZ3 whole entry, species assumed): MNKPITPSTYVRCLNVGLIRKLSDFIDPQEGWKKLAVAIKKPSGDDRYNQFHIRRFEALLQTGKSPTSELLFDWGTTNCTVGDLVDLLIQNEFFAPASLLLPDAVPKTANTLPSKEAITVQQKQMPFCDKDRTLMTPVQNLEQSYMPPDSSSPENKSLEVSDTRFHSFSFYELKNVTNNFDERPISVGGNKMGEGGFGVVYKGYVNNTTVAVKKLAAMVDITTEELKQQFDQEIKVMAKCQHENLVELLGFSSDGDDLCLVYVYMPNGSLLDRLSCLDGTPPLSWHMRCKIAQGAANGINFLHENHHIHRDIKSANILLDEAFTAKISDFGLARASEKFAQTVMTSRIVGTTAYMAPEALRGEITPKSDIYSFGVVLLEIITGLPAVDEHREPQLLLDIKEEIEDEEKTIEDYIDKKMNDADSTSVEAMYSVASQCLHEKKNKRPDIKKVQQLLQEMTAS

| SMILES | IC50 |
| --- | --- |
| CC(C)Nc1cc(-n2ncc3cc(C#N)cnc32)ncc1-n1cc(CF)nn1 [Example 329, 1-(5-(4-(fluoromethyl)-1H-1,2,3-triazol-1-yl)-4-(isopropylamino)pyridin-2-yl)-1H-pyrazolo[3,4-b]pyridine-5-carbonitrile] | 34 nM |
| CCC(C)(O)Cn1cc(-c2cnc(-n3cnc4cc(C#N)cnc43)cc2NC(C)C)nn1 (single isomer, unassigned) [Example 95, 3-(5-(1-(2-hydroxy-2-methylbutyl)-1H-1,2,3-triazol-4-yl)-4-(isopropylamino)pyridin-2-yl)-3H-imidazo[4,5-b]pyridine-6-carbonitrile] | 16 nM |
| CCCn1cc(-c2cnc(-n3cnc4cc(C#N)cnc43)cc2NC2CCOCC2)nn1 [Example 50, 3-(5-(1-propyl-1H-1,2,3-triazol-4-yl)-4-((tetrahydro-2H-pyran-4-yl)amino)pyridin-2-yl)-3H-imidazo[4,5-b]pyridine-6-carbonitrile] | 5 nM |
| CCCc1cn(-c2cnc(-n3ncc4cc(C#N)cnc43)cc2NC2COC2)nn1 [Example 276, 1-(4-(oxetan-3-ylamino)-5-(4-propyl-1H-1,2,3-triazol-1-yl)pyridin-2-yl)-1H-pyrazolo[3,4-b]pyridine-5-carbonitrile] | 17 nM |
| CC(C)Nc1cc(-n2ncc3cc(C#N)cnc32)ncc1-c1cn(C(C)(C)C)nn1 [Example 18, 1-(5-(1-(tert-butyl)-1H-1,2,3-triazol-4-yl)-4-(isopropylamino)pyridin-2-yl)-1H-pyrazolo[3,4-b]pyridine-5-carbonitrile] | 17 nM |
| CC(C)Nc1cc(-n2ncc3cc(C#N)cnc32)ncc1-c1cn(Cc2ccccc2)nn1 [Example 107, 1-(5-(1-benzyl-1H-1,2,3-triazol-4-yl)-4-(isopropylamino)pyridin-2-yl)-1H-pyrazolo[3,4-b]pyridine-5-carbonitrile] | 15 nM |
| CCCc1cn(-c2cnc(-n3ncc4cc(C#N)cnc43)cc2NCC(C)(C)O)nn1 [Example 287, 1-(4-((2-hydroxy-2-methylpropyl)amino)-5-(4-propyl-1H-1,2,3-triazol-1-yl)pyridin-2-yl)-1H-pyrazolo[3,4-b]pyridine-5-carbonitrile] | 34 nM |
| CCNc1cc(-n2cnc3cc(C#N)cnc32)ncc1-c1cn(C[C@H](C)O)nn1 [Example 72, (S)-3-(4-(ethylamino)-5-(1-(2-hydroxypropyl)-1H-1,2,3-triazol-4-yl)pyridin-2-yl)-3H-imidazo [4,5-b]pyridine-6-carbonitrile] | 52 nM |
| CC(C)Nc1cc(-n2ncc3cc(C#N)cnc32)ncc1-c1cn(C2CCOCC2)nn1 [Example 19, 1-(4-(isopropylamino)-5-(1-(tetrahydro-2H-pyran-4-yl)-1H-1,2,3-triazol-4-yl)pyridin-2-yl)-1H-pyrazolo[3,4-b]pyridine-5-carbonitrile] | 1 nM |
| CC(C)Nc1cc(-n2ncc3cc(C#N)cnc32)ncc1-c1cn(CC(=O)N2CCOCC2)cn1 [Example 231, 1-(4-(isopropylamino)-5-(1-(2-morpholino-2-oxoethyl)-1H-imidazol-4-yl)pyridin-2-yl)-1H-pyrazolo[3,4-b]pyridine-5-carbonitrile] | 21 nM |
| CC(C)Nc1cc(-n2ncc3cc(C#N)cnc32)ncc1-n1cc(CCO)cn1 [Example 242, 1-(5-(4-(2-hydroxyethyl)-1H-pyrazol-1-yl)-4-(isopropylamino)pyridin-2-yl)-1H-pyrazolo[3,4-b]pyridine-5-carbonitrile] | 47 nM |

Further molecules by falling IC50, results first:

| IC50 | SMILES |
| --- | --- |
| 196 nM | CC(C)Nc1cc(-n2ncc3cc(C#N)cnc32)ncc1-n1ccc(CC#N)n1 [Example 250, 1-(5-(3-(cyanomethyl)-1H-pyrazol-1-yl)-4-(isopropylamino)pyridin-2-yl)-1H-pyrazolo[3,4-b]pyridine-5-carbonitrile] |
| 157 nM | CCCc1cn(-c2cnc(-n3cnc4cc(C#N)cnc43)cc2N[C@H](C)CO)nn1 [Example 286, (R)-3-(4-((1-hydroxypropan-2-yl)amino)-5-(4-propyl-1H-1,2,3-triazol-1-yl)pyridin-2-yl)-3H-imidazo[4,5-b]pyridine-6-carbonitrile] |
| 115 nM | CC(C)Nc1cc(-n2ncc3cc(C#N)cnc32)ncc1-n1cc(CNC(N)=O)nn1 [Example 313, 1-((1-(6-(5-cyano-1H-pyrazolo[3,4-b]pyridin-1-yl)-4-(isopropylamino)pyridin-3-yl)-1H-1,2,3-triazol-4-yl)methyl)urea] |
| 51 nM | CC(C)Nc1cc(-n2ncc3cc(C#N)cnc32)ncc1-c1cn(CC2(O)CCN(C(=O)OC(C)(C)C)CC2)nn1 [Example 132, tert-butyl 4-((4-(6-(5-cyano-1H-pyrazolo[3,4-b]pyridin-1-yl)-4-(isopropylamino)pyridin-3-yl)-1H-1,2,3-triazol-1-yl)methyl)-4-hydroxypiperidine-1-carboxylate] |
| 29 nM | CCn1cnc(-c2cnc(-n3ncc4cc(C#N)cnc43)cc2NC(C)C)c1 [Example 227, 1-(5-(1-ethyl-1H-imidazol-4-yl)-4-(isopropylamino)pyridin-2-yl)-1H-pyrazolo[3,4-b]pyridine-5-carbonitrile] |
| 24 nM | CC(C)Nc1cc(-n2ncc3cc(C#N)cnc32)ncc1-c1cn(C[C@@H](N)Cc2ccccc2)nn1 [Example 168, (S)-1-(5-(1-(2-amino-3-phenylpropyl)-1H-1,2,3-triazol-4-yl)-4-(isopropylamino)pyridin-2-yl)-1H-pyrazolo[3,4-b]pyridine-5-carbonitrile] |
| 22 nM | CC(=O)N1CC(n2cnc(-c3cnc(-n4ncc5cc(C#N)cnc54)cc3NC(C)C)c2)C1 [Example 223, 1-(5-(1-(1-acetylazetidin-3-yl)-1H-imidazol-4-yl)-4-(isopropylamino)pyridin-2-yl)-1H-pyrazolo[3,4-b]pyridine-5-carbonitrile] |
| 19 nM | CC(C)Nc1cc(-n2ncc3cc(C#N)cnc32)ncc1-c1cn(C[C@H](C)CO)cn1 [Example 228, (S)-1-(5-(1-(3-hydroxy-2-methylpropyl)-1H-imidazol-4-yl)-4-(isopropylamino)pyridin-2-yl)-1H-pyrazolo[3,4-b]pyridine-5-carbonitrile] |
| 8 nM | CC(C)Nc1cc(-n2cnc3cc(C#N)cnc32)ncc1-c1cn(CCCF)nn1 [Example 45, 3-(5-(1-(3-fluoropropyl)-1H-1,2,3-triazol-4-yl)-4-(isopropylamino)pyridin-2-yl)-3H-imidazo[4,5-b]pyridine-6-carbonitrile] |
| 3 nM | CC(C)Nc1cc(-n2ccc3cncnc32)ncc1-c1cn(CCOCCOCCOCCO)nn1 [Example 9, 2-(2-(2-(2-(4-(4-(isopropylamino)-6-(7H-pyrrolo[2,3-d]pyrimidin-7-yl)pyridin-3-yl)-1H-1,2,3-triazol-1-yl)ethoxy)ethoxy)ethoxy) ethanol] |
| 3 nM | CCN[C@H]1CC[C@H](c2cn(-c3cnc(-n4ncc5cc(C#N)cnc54)cc3NC(C)C)nn2)CC1 [Example 356, 1-(5-(4-((1s,4s)-4-(ethylamino)cyclohexyl)-1H-1,2,3-triazol-1-yl)-4-(isopropylamino)pyridin-2-yl)-1H-pyrazolo[3,4-b]pyridine-5-carbonitrile] |
| 2 nM | CC(C)(O)CCc1cn(-c2cnc(-n3ncc4cc(C#N)cnc43)cc2N[C@H]2CC[C@@H](F)CC2)nn1 [Example 374, 1-(4-(((1r,4r)-4-fluorocyclohexyl)amino)-5-(4-(3-hydroxy-3-methylbutyl)-1H-1,2,3-triazol-1-yl)pyridin-2-yl)-1H-pyrazolo[3,4-b]pyridine-5-carbonitrile] |
